Data: ChEMBL document CHEMBL5608218, “Identification of 6,9-dihydro-5H-pyrrolo[3,2-h]quinazolines as a new class of F508del-CFTR correctors for the treatment of cystic fibrosis” (Eur J Med Chem, 2024)
One block for each compound: values may come before it. Active and inactive are the calls of the source. The calls are words filed in the database; no cut-off is given here.

Experiments:
Format in all cases: cell-based
[1] = system: Cystic fibrosis transmembrane conductance regulator (Homo sapiens), P13569 [F508del]; test: (§1) Corrector activity at CFTR F508del mutant (unknown origin) expressed in human CFBE41o- cells co-expressing halide-sensitive yellow fluorescent protein assessed as increase in iodide influx at 1 to 10 uM preincubated with compound for 24 hrs followed by compound washout and measured after 30 mins of stimulation with forskolin/genistein by fluorescence microplate reader; conditions: dose 1-10 µM
Cystic fibrosis transmembrane conductance regulator (Homo sapiens), P13569 [F508del], sequence (P13569 as listed by the source): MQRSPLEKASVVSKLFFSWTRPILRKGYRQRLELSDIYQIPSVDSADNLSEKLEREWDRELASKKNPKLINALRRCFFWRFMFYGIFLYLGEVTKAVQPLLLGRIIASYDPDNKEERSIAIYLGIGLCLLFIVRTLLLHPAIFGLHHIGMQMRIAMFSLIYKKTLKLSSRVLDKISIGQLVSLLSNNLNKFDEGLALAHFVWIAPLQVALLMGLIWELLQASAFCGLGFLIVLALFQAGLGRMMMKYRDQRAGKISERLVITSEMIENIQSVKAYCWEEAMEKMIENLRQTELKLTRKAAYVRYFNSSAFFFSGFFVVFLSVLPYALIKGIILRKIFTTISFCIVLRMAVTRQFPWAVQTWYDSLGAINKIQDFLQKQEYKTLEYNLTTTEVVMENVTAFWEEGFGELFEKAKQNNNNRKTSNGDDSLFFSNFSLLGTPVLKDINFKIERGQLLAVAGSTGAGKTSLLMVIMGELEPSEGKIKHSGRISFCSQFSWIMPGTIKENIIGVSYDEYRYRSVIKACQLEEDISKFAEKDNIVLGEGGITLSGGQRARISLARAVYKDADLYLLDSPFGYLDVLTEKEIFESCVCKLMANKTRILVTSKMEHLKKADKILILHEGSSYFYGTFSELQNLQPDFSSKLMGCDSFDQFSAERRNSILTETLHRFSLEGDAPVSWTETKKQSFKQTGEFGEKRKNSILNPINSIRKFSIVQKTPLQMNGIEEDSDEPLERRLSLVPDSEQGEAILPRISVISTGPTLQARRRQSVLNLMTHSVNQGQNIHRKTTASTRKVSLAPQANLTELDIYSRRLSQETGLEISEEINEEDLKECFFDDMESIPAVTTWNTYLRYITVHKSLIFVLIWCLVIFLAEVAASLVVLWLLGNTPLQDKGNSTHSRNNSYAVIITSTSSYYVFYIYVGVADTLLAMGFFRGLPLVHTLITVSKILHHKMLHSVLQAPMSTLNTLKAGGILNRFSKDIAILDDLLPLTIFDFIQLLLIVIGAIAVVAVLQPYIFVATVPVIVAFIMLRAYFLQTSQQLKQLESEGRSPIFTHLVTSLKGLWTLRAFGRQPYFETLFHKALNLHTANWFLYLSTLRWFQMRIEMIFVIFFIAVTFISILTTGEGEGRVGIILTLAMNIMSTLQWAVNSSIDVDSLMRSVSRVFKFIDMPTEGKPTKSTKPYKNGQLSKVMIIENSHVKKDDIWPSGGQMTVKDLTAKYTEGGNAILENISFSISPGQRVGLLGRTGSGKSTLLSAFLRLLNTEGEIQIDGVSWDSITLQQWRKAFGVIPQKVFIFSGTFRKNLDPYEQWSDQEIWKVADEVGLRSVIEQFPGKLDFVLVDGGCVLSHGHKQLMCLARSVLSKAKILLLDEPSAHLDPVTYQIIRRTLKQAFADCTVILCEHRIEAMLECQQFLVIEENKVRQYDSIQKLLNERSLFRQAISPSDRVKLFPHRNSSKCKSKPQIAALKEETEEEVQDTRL

[2] = system: Cystic fibrosis transmembrane conductance regulator (Homo sapiens), P13569 [F508del]; test: as §1, with “hrs in presence of VX-809” for “hrs”; conditions: filed as activator, dose 1-10 µM
[3] = biological target: T1, Cystic fibrosis transmembrane conductance regulator (Homo sapiens, UniProt P13569, F508DEL); test: as §1, with “influx” for “influx at 1 to 10 uM”, “hrs in presence of VX-809” for “hrs”
T1 sequence (P13569 as listed by the source): as above

[4] = system: Cystic fibrosis transmembrane conductance regulator (Homo sapiens), P13569 [F508del]; test: as §1, with “at” for “at 1 to”, “hrs in presence of VX-445” for “hrs”
[5] = system: Cystic fibrosis transmembrane conductance regulator (Homo sapiens), P13569 [F508del]; test: as §1, with “by measuring fold change” for “at 1 to 10 uM”, “hrs in presence of VX-809” for “hrs”, “reader relative to VX-809 alone” for “reader”; conditions: filed as activator
[6] = system: Cystic fibrosis transmembrane conductance regulator (Homo sapiens), P13569 [F508del]; test: as §1, with “at” for “at 1 to”, “hrs in presence of corr-4a” for “hrs”; conditions: filed as activator
[7] = biological target: T1, Cystic fibrosis transmembrane conductance regulator; test: as §1, with “influx” for “influx at 1 to 10 uM”

Compound: CCOC(=O)c1cc2c(n1Cc1ccc(F)c(Br)c1)-c1nc(NS(=O)(=O)c3ccccc3)ncc1CC2
- Activity ([1]; filed as activator): Active
- Activity [2]: Active

Compound: CCOC(=O)c1cc2c(n1Cc1cccc(Br)c1)-c1nc(NS(=O)(=O)c3ccccc3)ncc1CC2
- Activity [1]: inactive

Compound: CCOC(=O)c1cc2c(n1Cc1ccc(C)cc1)-c1nc(NS(=O)(=O)c3ccccc3)ncc1CC2
- Activity [1]: inactive

Compound: CCOC(=O)c1cc2c(n1Cc1ccc(Br)cc1)-c1nc(NS(=O)(=O)c3ccccc3)ncc1CC2
- Activity [1]: inactive

Compound: CCOC(=O)c1c(Br)c2c(n1Cc1cccc(C)c1)-c1[nH]c(=O)c(S(=O)(=O)c3ccccc3)cc1CC2
- EC50 [3]: 450 nM
- Activity [4]: inactive
- fold change (FC) [5]: 2.4
- Activity [6]: Active
- EC50 [7]: 750 nM

Compound: CCOC(=O)c1c(Br)c2c(n1CC1CC1)-c1nc(NS(=O)(=O)c3ccccc3)ncc1CC2
- Activity [1]: inactive
- Activity [2]: Active

Compound: CCOC(=O)c1cc2c(n1CC1CC1)-c1nc(NS(=O)(=O)c3ccccc3)ncc1CC2
- Activity [1]: inactive

Results, then the compound that gave them:

- Activity [2]: Active
Compound: CCOC(=O)c1c(Br)c2c(n1Cc1cccc(C)c1)-c1nc(NS(=O)(=O)c3ccccc3)ncc1CC2

- EC50 [3]: 2120 nM
- Activity [4]: inactive
- fold change (FC) [5]: 2.3
- Activity [6]: Active
- EC50 [7]: 3080 nM
- Activity ([1]; filed as activator): Active
- Activity [2]: Active
Compound: CCOC(=O)c1c(Br)c2c(n1Cc1cccc(Br)c1)-c1nc(NS(=O)(=O)c3ccccc3)ncc1CC2

- Activity ([1]; filed as activator): Active
- Activity [2]: Active
Compound: CCOC(=O)c1c(Br)c2c(n1Cc1ccc(C)c(C)c1)-c1nc(NS(=O)(=O)c3ccccc3)ncc1CC2

- Activity [2]: Active
Compound: CCOC(=O)c1cc2c(n1Cc1cccc(C)c1)-c1nc(NS(=O)(=O)c3ccccc3)ncc1CC2

- Activity ([1]; filed as activator): Active
- Activity [2]: Active
Compound: CCOC(=O)c1c(Br)c2c(n1Cc1ccc(F)c(Br)c1)-c1nc(NS(=O)(=O)c3ccccc3)ncc1CC2

- Activity [2]: Active
Compound: Cc1cccc(Cn2c(C(=O)OC(C)C)c(Br)c3c2-c2nc(NS(=O)(=O)c4ccccc4)ncc2CC3)c1

- EC50 [3]: 1880 nM
- Activity [4]: inactive
- fold change (FC) [5]: 2.1
- Activity [6]: Active
- EC50 [7]: 3140 nM
- Activity [2]: Active
Compound: CCOC(=O)c1c(Cl)c2c(n1Cc1cccc(C)c1)-c1nc(NS(=O)(=O)c3ccccc3)ncc1CC2

- Activity [1]: inactive
Compound: CCOC(=O)c1c(Br)c2c(n1Cc1ccc(F)cc1)-c1nc(NS(=O)(=O)c3ccccc3)ncc1CC2

- Activity [1]: inactive
- Activity [2]: Active
Compound: CCOC(=O)c1c(Br)c2c(n1Cc1ccc(Br)cc1)-c1nc(NS(=O)(=O)c3ccccc3)ncc1CC2

- Activity [1]: inactive
Compound: CCOC(=O)c1c(Br)c2c(n1Cc1ccc(C)cc1)-c1nc(NS(=O)(=O)c3ccccc3)ncc1CC2
